Experimental data taken from the supplement of paper PMC10307832.

Columns and labels:
Assay in all cases: relative viability (nuclei count vs DMSO), 5 days (fraction); higher = more cells survive
LOU-NH91 = tested on: LOU-NH91
Outline: (§1)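 For relative viability, nuclei counts in treated wells were divided by those in vehicle wells. Lung cancer cell lines had been pin-tool dosed in 1536-well plates the day after seeding and cultured for 5 days, then fixed and stained in one step (final 0.05% Triton X-100, 1% formaldehyde, 1 ug/ml Hoechst) and imaged at 4×. Doses were one drug alone or a fixed anchor-drug dose plus five library-drug doses (not always all listed) in √10 steps, and values are duplicate-plate medians.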

SW 900 = tested on: SW 900
Outline: as §1

ChaGo-K-1 = tested on: ChaGo-K-1
Outline: as §1

COR-L 105 = tested on: COR-L 105
Outline: as §1

HCC-366 = tested on: HCC-366
Outline: as §1

LK-2 = tested on: LK-2
Outline: as §1

NCI-H1944 = tested on: NCI-H1944
Outline: as §1

NCI-H1666 = tested on: NCI-H1666
Outline: as §1

NCI-H596 = tested on: NCI-H596
Outline: as §1

NCI-H441 = tested on: NCI-H441
Outline: as §1

H3255 = tested on: H3255
Outline: as §1

PC-3 [JPC-3] = tested on: PC-3 [JPC-3]
Outline: as §1

NCI-H1792 = tested on: NCI-H1792
Outline: as §1

EKVX = tested on: EKVX
Outline: as §1

A-427 = tested on: A-427
Outline: as §1

NCI-H1975 = tested on: NCI-H1975
Outline: as §1

NCI-H520 = tested on: NCI-H520
Outline: as §1

SK-MES-1 = tested on: SK-MES-1
Outline: as §1

NCI-H1755 = tested on: NCI-H1755
Outline: as §1

EMC-BAC-2 = tested on: EMC-BAC-2
Outline: as §1

NCI-H1734 = tested on: NCI-H1734
Outline: as §1

NCI-H2170 = tested on: NCI-H2170
Outline: as §1

NCI-H23 = tested on: NCI-H23
Outline: as §1

Clc1ccc(Nc2nnc(Cc3ccncc3)c3ccccc23)cc1 [Vatalanib] + Nc1ncn([C@H]2C[C@H](O)[C@@H](CO)O2)c(=O)n1 [Decitabine] (partner 2 µM)
relative viability (LOU-NH91; first compound 0.04 µM): 0.766
relative viability (LOU-NH91; first compound 0.1265 µM): 0.81
relative viability (LOU-NH91; first compound 0.4 µM): 0.766
relative viability (LOU-NH91; first compound 1.265 µM): 0.824
relative viability (LOU-NH91; first compound 4 µM): 0.823
relative viability (SW 900; first compound 0.04 µM): 0.421
relative viability (SW 900; first compound 0.1265 µM): 0.457
relative viability (SW 900; first compound 0.4 µM): 0.447
relative viability (SW 900; first compound 1.265 µM): 0.423
relative viability (SW 900; first compound 4 µM): 0.425
relative viability (ChaGo-K-1; first compound 0.04 µM): 0.494
relative viability (ChaGo-K-1; first compound 0.1265 µM): 0.52
relative viability (ChaGo-K-1; first compound 0.4 µM): 0.533
relative viability (ChaGo-K-1; first compound 1.265 µM): 0.522
relative viability (ChaGo-K-1; first compound 4 µM): 0.527
relative viability (COR-L 105; first compound 0.04 µM): 0.722
relative viability (COR-L 105; first compound 0.1265 µM): 0.706
relative viability (COR-L 105; first compound 0.4 µM): 0.796
relative viability (COR-L 105; first compound 1.265 µM): 0.681
relative viability (COR-L 105; first compound 4 µM): 0.714
relative viability (HCC-366; first compound 0.04 µM): 0.328
relative viability (HCC-366; first compound 0.1265 µM): 0.271
relative viability (HCC-366; first compound 0.4 µM): 0.395
relative viability (HCC-366; first compound 1.265 µM): 0.312
relative viability (HCC-366; first compound 4 µM): 0.348
relative viability (LK-2; first compound 0.04 µM): 0.242
relative viability (LK-2; first compound 0.1265 µM): 0.25
relative viability (LK-2; first compound 0.4 µM): 0.297
relative viability (LK-2; first compound 1.265 µM): 0.266
relative viability (LK-2; first compound 4 µM): 0.319
relative viability (NCI-H1944; first compound 0.04 µM): 0.427
relative viability (NCI-H1944; first compound 0.1265 µM): 0.393
relative viability (NCI-H1944; first compound 0.4 µM): 0.476
relative viability (NCI-H1944; first compound 1.265 µM): 0.398
relative viability (NCI-H1944; first compound 4 µM): 0.419
relative viability (NCI-H1666; first compound 0.04 µM): 0.649
relative viability (NCI-H1666; first compound 0.1265 µM): 0.755
relative viability (NCI-H1666; first compound 0.4 µM): 0.593
relative viability (NCI-H1666; first compound 1.265 µM): 0.672
relative viability (NCI-H1666; first compound 4 µM): 0.785
relative viability (NCI-H596; first compound 0.04 µM): 0.921
relative viability (NCI-H596; first compound 0.1265 µM): 1.14
relative viability (NCI-H596; first compound 0.4 µM): 1.22
relative viability (NCI-H596; first compound 1.265 µM): 1.01
relative viability (NCI-H596; first compound 4 µM): 1.02
relative viability (NCI-H441; first compound 0.04 µM): 0.237
relative viability (NCI-H441; first compound 0.1265 µM): 0.212
relative viability (NCI-H441; first compound 0.4 µM): 0.206
relative viability (NCI-H441; first compound 1.265 µM): 0.228
relative viability (NCI-H441; first compound 4 µM): 0.242
relative viability (H3255; first compound 0.04 µM): 0.526
relative viability (H3255; first compound 0.1265 µM): 0.616
relative viability (H3255; first compound 0.4 µM): 0.515
relative viability (H3255; first compound 1.265 µM): 0.613
relative viability (H3255; first compound 4 µM): 0.551
relative viability (PC-3 [JPC-3]; first compound 0.04 µM): 0.843
relative viability (PC-3 [JPC-3]; first compound 0.1265 µM): 0.81
relative viability (PC-3 [JPC-3]; first compound 0.4 µM): 0.663
relative viability (PC-3 [JPC-3]; first compound 1.265 µM): 0.857
relative viability (PC-3 [JPC-3]; first compound 4 µM): 0.777
relative viability (NCI-H1792; first compound 0.04 µM): 0.614
relative viability (NCI-H1792; first compound 0.1265 µM): 0.465
relative viability (NCI-H1792; first compound 0.4 µM): 0.608
relative viability (NCI-H1792; first compound 1.265 µM): 0.515
relative viability (NCI-H1792; first compound 4 µM): 0.55
relative viability (EKVX; first compound 0.04 µM): 0.41
relative viability (EKVX; first compound 0.1265 µM): 0.346
relative viability (EKVX; first compound 0.4 µM): 0.308
relative viability (EKVX; first compound 1.265 µM): 0.338
relative viability (EKVX; first compound 4 µM): 0.296
relative viability (A-427; first compound 0.04 µM): 0.6
relative viability (A-427; first compound 0.1265 µM): 0.544
relative viability (A-427; first compound 0.4 µM): 0.601
relative viability (A-427; first compound 4 µM): 0.535
relative viability (NCI-H1975; first compound 0.04 µM): 0.423
relative viability (NCI-H1975; first compound 0.1265 µM): 0.378
relative viability (NCI-H1975; first compound 0.4 µM): 0.401
relative viability (NCI-H1975; first compound 1.265 µM): 0.391
relative viability (NCI-H1975; first compound 4 µM): 0.397
relative viability (NCI-H520; first compound 0.04 µM): 0.504
relative viability (NCI-H520; first compound 0.1265 µM): 0.446
relative viability (NCI-H520; first compound 0.4 µM): 0.581
relative viability (NCI-H520; first compound 1.265 µM): 0.456
relative viability (NCI-H520; first compound 4 µM): 0.529
relative viability (SK-MES-1; first compound 0.04 µM): 0.358
relative viability (SK-MES-1; first compound 0.1265 µM): 0.342
relative viability (SK-MES-1; first compound 0.4 µM): 0.415
relative viability (SK-MES-1; first compound 1.265 µM): 0.287
relative viability (SK-MES-1; first compound 4 µM): 0.353
relative viability (NCI-H1755; first compound 0.04 µM): 0.691
relative viability (NCI-H1755; first compound 0.1265 µM): 0.76
relative viability (NCI-H1755; first compound 0.4 µM): 0.745
relative viability (NCI-H1755; first compound 1.265 µM): 0.707
relative viability (NCI-H1755; first compound 4 µM): 0.728
relative viability (EMC-BAC-2; first compound 0.04 µM): 0.984
relative viability (EMC-BAC-2; first compound 0.1265 µM): 0.952
relative viability (EMC-BAC-2; first compound 0.4 µM): 0.983
relative viability (EMC-BAC-2; first compound 4 µM): 0.956
relative viability (NCI-H1734; first compound 0.04 µM): 0.575
relative viability (NCI-H1734; first compound 0.1265 µM): 0.51
relative viability (NCI-H1734; first compound 0.4 µM): 0.592
relative viability (NCI-H1734; first compound 1.265 µM): 0.477
relative viability (NCI-H1734; first compound 4 µM): 0.518
relative viability (NCI-H2170; first compound 0.04 µM): 0.479
relative viability (NCI-H2170; first compound 0.1265 µM): 0.474
relative viability (NCI-H2170; first compound 0.4 µM): 0.488
relative viability (NCI-H2170; first compound 1.265 µM): 0.469
relative viability (NCI-H2170; first compound 4 µM): 0.487
relative viability (NCI-H23; first compound 0.04 µM): 0.355
relative viability (NCI-H23; first compound 0.1265 µM): 0.324
relative viability (NCI-H23; first compound 0.4 µM): 0.314
relative viability (NCI-H23; first compound 1.265 µM): 0.291
relative viability (NCI-H23; first compound 4 µM): 0.348
